The text below walks through data of paper PMC3022030 (PLoS ONE, 2011).

Like-named read-outs stand apart in the source and are kept apart here.

Assay in all cases: biochemical
Test [1] deals with T1, QacR (Staphylococcus aureus, UniProt P0A0N3, E120A).
The target of test [2] is T2, QacR (Staphylococcus aureus, UniProt P0A0N3, E90A).
For test [3], the target named is T1, QacR. This is another data set of the same source.
Test [4] concerns the target T2, QacR. The source holds these as a separate data set.

On to `Cc1cc(N)c2ccccc2[n+]1CCCCCCCCCC[n+]1c(C)cc(N)c2ccccc21` [dequalinium], for which the Kd came out at 2400 ± 600 nM at QacR [1] and 1800 ± 70 nM at QacR [2].
With `CC[n+]1c(-c2ccccc2)c2cc(N)ccc2c2ccc(N)cc21` [ethidium], the results for the equilibrium dissociation constant (Kd) at QacR [3] and at QacR [4] were 1250 ± 150 nM and 1030 ± 90 nM, respectively.
`CN(C)c1ccc(C(=C2C=CC(=[N+](C)C)C=C2)c2ccccc2)cc1` [malachite green]: the figures for the Kd on QacR [3] and at QacR [4] were 980 ± 320 nM and 1490 ± 100 nM, respectively.
The like results for `CCN=c1cc2oc3cc(NCC)c(C)cc3c(-c3ccccc3C(=O)OCC)c-2cc1C` [rhodamine 6G] were, in that order, 170 ± 10 nM and 210 ± 20 nM.

As a reminder, the Kd is the equilibrium constant for the complex coming apart. Read a high Kd as a looser complex.
